Tests used:
[1] = brain microdialysis: concentration of (R)-phenylpiracetam in the brain after i.p. application; type: in vivo, rats; conditions: rat
Experimental: EXAMPLE 3: Assessment of the concentration of (R)-phenylpiracetam in the brain using brain microdialysis - Figs. 2, 14, 15
Naive adult male Sprague-Dawley rats (240-360 g, Janvier, France) were used for the study kept under standard conditions. All experiments were conducted during the light period of the day-night cycle.
Siliconized guide cannula (MAB 6.14.IC) (MAB, Stockhom, Sweden) were implanted unilaterally in pentobarbital anaesthetized animals aiming at the caudatus putamen (CPu; AP: +0.1, LM: ± 2.6, DV: -3.2 mm relative to bregma; -3.3 mm interaural) according to the atlas of Paxinos and Watson (loc. cit.). Rats were given at least 3 days to recover from surgery before starting microdialysis experiments.
Microdialysis experiments were performed in the home cage of the animal. A microdialysis probe (MAB 6.14.4.; 4 mm exposed membrane length, polyethersulfone (PES) membrane; MAB, Stockholm, Sweden) was lowered through the guide cannula into the CPu (ventral position of probe tip with reference to the skull: -7.2 mm) ca. 12 hours before the sampling and left in place for the whole testing period.
The probes were perfused with aCSF at a flow rate of 2 µl/min using a CMA 102 perfusion pump (CMA, Solna, Sweden). The composition of the aCSF was 147 mM Na^+, 2.7 mM K^+, 1.2 mM Ca^2+, 0.85 mM Mg^2+, 0.04 mM ascorbic acid. […]

[2] = in vivo; cited from earlier work
[3] = test system: rats; experiment: electroencephalography (EEG) screen in freely moving rats; type: in vivo
Experimental: EXAMPLE 5: Testing of (R)-phenylpiracetam in an electroencephaloaraphy (EEG) screen - Fig. 4
(R)-Phenylpiracetam was tested at four different concentrations (1 mg/kg, 12.5 mg/kg, 25 mg/kg, and 50 mg/kg) in an EEG screen as described by Dimpfel (Dimpfel, Neuropsychobiology, 58 (2008)178-86).
Eight adult Fisher 344 rats (8 months of age, kept on inverse light-dark cycle, weight about 400 g, provided by Charles River Laboratories, D-97633, Sulzfeld) were used in this experimental series. Animals were implanted with electrodes into the brain and were given two weeks for recovery from surgery. After this the transmitter was plugged in for adaptation and control experiments.
The animals were allowed to acclimatize for at least 4 weeks before the study started. There was automatic control of light cycle, temperature and humidity. Light hours were 18 h in the evening - 6 h in the morning. […] Cages, bedding, and water bottles were changed at regular intervals, i.e. every 2-3 days. Standard diet (Nohrlin H10, Altromin, D-32791 Lage, Germany) was available to the animals ad libitum. The animals had access to domestic quality mains water ad libitum.
Rats were implanted with 4 bipolar concentric steel electrodes within a stereotactic surgical procedure during anaesthesia with ketamine. All four electrodes were placed 3 mm lateral within the left hemisphere. Dorsoventral coordinates were 4, 6, 4.2 and 8 mm and anterior coordinates were 3.7, 9.7, 5.7 and 12.2 mm for frontal cortex, striatum, hippocampus, and reticular formation, respectively (according to the atlas of Paxinos and Watson, 1982). A pre-constructed base plate carrying 4 bipolar stainless steel semi-micro electrodes (neurological electrodes "SNF 100" from Rhodes Medical Instruments, Inc., Summerland, CA 93067, USA) and a 5-pin-plug was fixed to the skull by dental cement interacting with 3 steel screws placed on distance into the bone. The distant recording spot of the electrode was the active electrode whereas the proximal spots of the four electrodes were connected to each other to give a reference. The base plate was carrying a plug to receive later on the transmitter (weight: 5.2 g including battery, 26 mm x 12 mm x 6 mm of size).
EEG signals were recorded from frontal cortex, hippocampus, striatum and reticular formation of freely moving rats from inside a totally copper shielded room. Signals were wirelessly transmitted by a radio-telemetric system (Rhema Labortechnik, Hofheim, Germany, using 40 MHz as carrier frequency) and were amplified and processed as described earlier to give power spectra of 0.25 Hz resolution (Dimpfel et al. 1986; Dimpfel et al. 1988; Dimpfel et al. 1989; Dimpfel, 2003). […]

NC(=O)CN1C[C@@H](c2ccccc2)CC1=O [(R)-phenylpiracetam]
free concentration in extracellular fluid in the brain ([1]; 50 mg/kg): 20 µM
free concentration in extracellular fluid in the brain ([1]; 100 mg/kg): 50 µM
memory function in the passive avoidance test [2]: enhanced memory function significantly better compared to (S)-phenylpiracetam
theta, delta, alpha1 and beta2 waves in the reticular formation ([3]; EEG pattern compared with nootropics): no change
alpha2 and beta1 waves ([3]; i.p., 1, 12.5, 25 and 50 mg/kg): dose dependent attenuation
theta power within the frontal cortex ([3]; i.p., highest dosage): increases
Motility ([3]; i.p., video tracking during EEG): increased

Reference: EP2891491A1, “Use of (r)-phenylpiracetam for the treatment of sleep disorders” (Merz Pharma GmbH & Co. KGaA, priority 2014, dated 2015)
